Experimental data from PMC6008465 (British Journal of Cancer, 2018).
Marks after values point to notes of the source that are not given here.

Legend:
[1] = test system: BRAF-mutated human cancer xenograft models; conditions: Q4D x3 schedule; cited from earlier work
[2] = Part B pharmacokinetics by BRAF genotype; type: in vivo, human; conditions: Part B dose-expansion, by dose and genotype
Method: (§1) In Part A, blood was collected on Cycle 1, Days 1 and 15 at specified intervals prior to, during, and postinfusion (5 min–8 h), and on Days 2, 3, 16, and 17 (24 and 48 h postinfusion). Urine was collected on Cycle 1, Day 1 preinfusion, at 0–8 h, and 8–24 h. In Part B, blood was collected on Cycle 1, Day 1, prior to, during, and at 1–24 h postinfusion. Pharmacokinetic parameters were calculated using noncompartmental analysis.

MEK1 = conditions: preclinical models; cited from earlier work
[3] = test system: metastatic BRAF-mutated or WT melanoma; assay: Part B tumour response (RECIST 1.0); type: in vivo, human; conditions: for Duration of SD: one patient; for Median (95% CI) duration of PFS / Median (95% CI) duration of SD: Kaplan-Meier estimate
Method: In Part B, an adaptive study design was planned to define an optimal dosing schedule. […] One dose escalation (from 160 mg/m^2 to 320 mg/m^2) was allowed in Schedule II for MTD determination. […] Toxicity was managed as before. Up to 30 patients with BRAF-mutated melanoma and up to 29 patients with BRAF-WT melanoma were to be enrolled in Schedule I. Up to 30 patients were to be enrolled into Schedule II once the MTD was confirmed.
Efficacy was assessed by tumour response determined by investigator review of computed tomography/magnetic resonance imaging scans using Response Evaluation Criteria in Solid tumours version 1.0 (RECIST).[17]

[4] = Part A pharmacokinetics (plasma and urine, noncompartmental analysis); type: in vivo, human
Method: as §1

[5] = Part B, BRAF-WT 320 mg/m^2 once weekly (n=7)
[6] = Part B, BRAF-mutated 160 mg/m^2 twice weekly (n=3)
[7] = Part B, BRAF-mutated 320 mg/m^2 once weekly (n=20)
[8] = Cycle 1 Day 1, 160 mg/m^2 (n=3)

For `CCNc1cc(O)c2c(c1)/C=C/C[C@H](O)[C@H](O)C(=O)/C=C\[C@@H](C)[C@H](C)OC2=O` [E6201, (3S,4R,5Z,8S,9S,11E)-14-(ethylamino)-8,9,16-trihydroxy-3,4-dimethyl-3,4,9,19-tetrahydro-1H-2-benzoxacyclotetradecine-1,7 (8H)-dione], the “Duration of significant and prolonged anti-tumour activity from first dose” value [1] is given as greater than 20 days, the “Effect of BRAF mutation on PK properties” value [2] is given as “no effect” and the “Time after dosing at which MEK1 inhibition occurred” value (MEK1) is given as 8 h. The “Time postdose for which MEK1 inhibition was sustained” value (MEK1) was 72 h, the “Patients with PR / patients” value ([3]; Part B, BRAF-WT) was 1/7 and the “Patients with SD / patients” value ([3]; Part B, BRAF-WT) was 1/7. The “Complete response (CR)” value [3, 5] was 0 n (%), the “Disease control rate (CR+PR+SD)” value [3, 5] was 2 (28.6) n (%) and the “Not evaluable (NE)” value [3, 5] was 1 (14.3) n (%). The “Overall response rate (CR+PR)” value [3, 5] was 1 (14.3) n (%), the “Partial response (PR)” value [3, 5] was 1 (14.3)^b n (%) and the “Progressive disease (PD)” value [3, 5] was 2 (28.6) n (%). For the same compound, the “Duration of SD” value ([3]; Part B, BRAF-WT 320 mg/m^2 once weekly) was 4 cycles, the “Disease control rate (DCR; complete response + PR + SD)” value ([3]; Part B, BRAF-WT melanoma (2/7)) was 28.6% and the “Complete response (CR)” value [3, 6] was 0 n (%). For the same compound, the “Disease control rate (CR+PR+SD)” value [3, 6] was 1 (33.3) n (%), the “Not evaluable (NE)” value [3, 6] was 0 n (%) and the “Overall response rate (CR+PR)” value [3, 6] was 0 n (%). The “Partial response (PR)” value [3, 6] was 0 n (%), the “Progressive disease (PD)” value [3, 6] was 1 (33.3) n (%) and the “Median (95% CI) duration of PFS” value [3, 6] was 83.5 (29.0–138.0) days. The “Median (95% CI) duration of SD” value [3, 6] was 138.0 (29.0–138.0) days, the “Duration of SD” value ([3]; Part B, BRAF-mutated 160 mg/m^2 twice weekly) was greater than 4 cycles and the “Patients with SD for ≥4 cycles” value ([3]; Part B, BRAF-mutated 320 mg/m^2 once weekly) was 5 patients. For the same compound, the “Complete response (CR)” value [3, 7] was 0 n (%), the “Disease control rate (CR+PR+SD)” value [3, 7] was 9 (45.0) n (%) and the “Not evaluable (NE)” value [3, 7] was 1 (5.0) n (%). The “Overall response rate (CR+PR)” value [3, 7] was 2 (10.0) n (%), the “Partial response (PR)” value [3, 7] was 2 (10.0)^a n (%) and the “Progressive disease (PD)” value [3, 7] was 6 (30.0) n (%). The “Median (95% CI) duration of PFS” value [3, 7] was 73.0 (26.0–166.0) days, the “Median (95% CI) duration of SD” value [3, 7] was 73.0 (29.0–166.0) days and the “Patients with PR / patients” value ([3]; Part B, BRAF-mutated melanoma) was 2/23. The “Patients with SD / patients” value ([3]; Part B, BRAF-mutated melanoma) was 8/23, the “Disease control rate (DCR; complete response + PR + SD)” value ([3]; Part B, BRAF-mutated melanoma (10/23)) was 43.5% and the “Complete response (CR)” value ([3]; Part B, Total (N=30)) was 0 n (%). For the same compound, the “Disease control rate (CR+PR+SD)” value ([3]; Part B, Total (N=30)) was 12 (40.0) n (%), the “Not evaluable (NE)” value ([3]; Part B, Total (N=30)) was 2 (6.7) n (%) and the “Overall response rate (CR+PR)” value ([3]; Part B, Total (N=30)) was 3 (10.0) n (%). For the same compound, the “Partial response (PR)” value ([3]; Part B, Total (N=30)) was 3 (10.0) n (%), the “Progressive disease (PD)” value ([3]; Part B, Total (N=30)) was 9 (30.0) n (%) and the “Number of partial responses (PR)” value ([3]; Part B, all) was “three”. For the same compound, the “Patients with SD for ≥4 cycles (3.7 months)” value ([3]; Part B, all groups) was “seven”, the “Number of partial responses (PR)” value ([3]; Part B, BRAF-WT melanoma, 320 mg/m^2 once-weekly) was 1 and the “Number of partial responses (PR)” value ([3]; Part B, V600E BRAF-mutated melanoma, 320 mg/m^2 once-weekly) was 2. The “Response of brain metastases” value ([3]; one patient with BRAF-mutated melanoma who achieved a PR) was “brain metastases that responded to treatment”, the “Fraction of E6201 excreted in the urine” value ([4]; 24-hour collection interval) was no more than 0.21% and the “AUC(0-t), mean (%CV)” value ([4]; Cycle 1 Day 1, 20 mg/m^2 (n=4)) was 1650 (218) ng·h/mL. For the same compound, the “CLR (renal clearance), mean (%CV)” value ([4]; Cycle 1 Day 1, 20 mg/m^2 (n=4)) was 10.0 (188) mL/h, the “Cmax, mean (%CV)” value ([4]; Cycle 1 Day 1, 20 mg/m^2 (n=4)) was 552 (50) ng/mL and the “Tmax, median (range)” value ([4]; Cycle 1 Day 1, 20 mg/m^2 (n=4)) was 0.5 (0.25–0.5) h. For the same compound, the “fe (fraction of drug excreted in urine), mean (%CV)” value ([4]; Cycle 1 Day 1, 20 mg/m^2 (n=4)) was 0.0125 (42) %, the “t½, mean” value ([4]; Cycle 1 Day 1, 20 mg/m^2, n=2) was 1.96^b (--) h and the “CL, mean (%CV)” value ([4]; Cycle 1 Day 1, 20 mg/m^2, n=2, %CV 2) was 110^b (2) L/h. For the same compound, the “Vss, mean (%CV)” value ([4]; Cycle 1 Day 1, 20 mg/m^2, n=2, %CV 28) was 135^b (28) L, the “AUC(0-t), mean (%CV)” value ([4]; Cycle 1 Day 1, 40 mg/m^2 (n=3)) was 2410 (201) ng·h/mL and the “CLR (renal clearance), mean (%CV)” value ([4]; Cycle 1 Day 1, 40 mg/m^2 (n=3)) was 1.65 (--) mL/h. For the same compound, the “Cmax, mean (%CV)” value ([4]; Cycle 1 Day 1, 40 mg/m^2 (n=3)) was 870 (70) ng/mL, the “Tmax, median (range)” value ([4]; Cycle 1 Day 1, 40 mg/m^2 (n=3)) was 0.5 (0.5–0.5) h and the “fe (fraction of drug excreted in urine), mean (%CV)” value ([4]; Cycle 1 Day 1, 40 mg/m^2 (n=3)) was 0 (--) %. The “t½, mean” value ([4]; Cycle 1 Day 1, 40 mg/m^2, n=2) was 2.70^b (--) h, the “Vss, mean (%CV)” value ([4]; Cycle 1 Day 1, 40 mg/m^2, n=2, %CV 21) was 164^b (21) L and the “CL, mean (%CV)” value ([4]; Cycle 1 Day 1, 40 mg/m^2, n=2, %CV 25) was 103^b (25) L/h. The “AUC(0-t), mean (%CV)” value ([4]; Cycle 1 Day 1, 80 mg/m^2 (n=3)) was 2520 (63) ng·h/mL, the “CL, mean (%CV)” value ([4]; Cycle 1 Day 1, 80 mg/m^2 (n=3)) was 68.7 (60) L/h and the “CLR (renal clearance), mean (%CV)” value ([4]; Cycle 1 Day 1, 80 mg/m^2 (n=3)) was 28.9 (54) mL/h. The “Cmax, mean (%CV)” value ([4]; Cycle 1 Day 1, 80 mg/m^2 (n=3)) was 3350 (149) ng/mL, the “Tmax, median (range)” value ([4]; Cycle 1 Day 1, 80 mg/m^2 (n=3)) was 0.5 (0.25–0.5) h and the “Vss, mean (%CV)” value ([4]; Cycle 1 Day 1, 80 mg/m^2 (n=3)) was 135 (100) L. The “fe (fraction of drug excreted in urine), mean (%CV)” value ([4]; Cycle 1 Day 1, 80 mg/m^2 (n=3)) was 0.04 (26) %, the “t½, mean” value ([4]; Cycle 1 Day 1, 80 mg/m^2 (n=3)) was 2.79 (--) h and the “AUC(0-t), mean (%CV)” value [4, 8] was 2770 (36) ng·h/mL. For the same compound, the “CL, mean (%CV)” value [4, 8] was 119 (50) L/h.
